Measurements published in the kinase profiling compilation of Christmann-Franck et al. (2016).

Key:
Experiment in all cases: radiometric filter-binding kinase assay
DYRK1A (human) = DYRK1A (human) (UniProt Q13627)
PLK1 (human) = PLK1 (human) (UniProt P53350)
[1] = test system: PAK2 (human), Q13177 [T402E]
PAK4 (human) = PAK4 (human) (UniProt O96013)
PRKCZ (human) = PRKCZ (human) (UniProt Q05513)
HIPK2 (human) = HIPK2 (human) (UniProt Q9H2X6)
AURKB (human) = AURKB (human) (UniProt Q96GD4)
MAPKAPK2 (human) = MAPKAPK2 (human) (UniProt P49137)
Chain of MAPKAPK2 (human) (P49137 whole entry, looked up): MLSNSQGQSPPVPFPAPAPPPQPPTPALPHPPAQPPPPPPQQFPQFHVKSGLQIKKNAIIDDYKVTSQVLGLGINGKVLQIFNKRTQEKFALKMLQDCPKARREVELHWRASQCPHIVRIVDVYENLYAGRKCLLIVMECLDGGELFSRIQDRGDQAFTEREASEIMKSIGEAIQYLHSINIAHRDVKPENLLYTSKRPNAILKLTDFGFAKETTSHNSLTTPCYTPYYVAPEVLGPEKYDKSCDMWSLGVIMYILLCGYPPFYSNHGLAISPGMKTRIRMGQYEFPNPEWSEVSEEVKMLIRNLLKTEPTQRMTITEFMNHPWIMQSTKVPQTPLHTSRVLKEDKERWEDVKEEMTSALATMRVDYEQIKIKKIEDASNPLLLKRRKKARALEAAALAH

EPHB3 (human) = EPHB3 (human) (UniProt P54753)
Chain of EPHB3 (human) (P54753 whole entry, looked up): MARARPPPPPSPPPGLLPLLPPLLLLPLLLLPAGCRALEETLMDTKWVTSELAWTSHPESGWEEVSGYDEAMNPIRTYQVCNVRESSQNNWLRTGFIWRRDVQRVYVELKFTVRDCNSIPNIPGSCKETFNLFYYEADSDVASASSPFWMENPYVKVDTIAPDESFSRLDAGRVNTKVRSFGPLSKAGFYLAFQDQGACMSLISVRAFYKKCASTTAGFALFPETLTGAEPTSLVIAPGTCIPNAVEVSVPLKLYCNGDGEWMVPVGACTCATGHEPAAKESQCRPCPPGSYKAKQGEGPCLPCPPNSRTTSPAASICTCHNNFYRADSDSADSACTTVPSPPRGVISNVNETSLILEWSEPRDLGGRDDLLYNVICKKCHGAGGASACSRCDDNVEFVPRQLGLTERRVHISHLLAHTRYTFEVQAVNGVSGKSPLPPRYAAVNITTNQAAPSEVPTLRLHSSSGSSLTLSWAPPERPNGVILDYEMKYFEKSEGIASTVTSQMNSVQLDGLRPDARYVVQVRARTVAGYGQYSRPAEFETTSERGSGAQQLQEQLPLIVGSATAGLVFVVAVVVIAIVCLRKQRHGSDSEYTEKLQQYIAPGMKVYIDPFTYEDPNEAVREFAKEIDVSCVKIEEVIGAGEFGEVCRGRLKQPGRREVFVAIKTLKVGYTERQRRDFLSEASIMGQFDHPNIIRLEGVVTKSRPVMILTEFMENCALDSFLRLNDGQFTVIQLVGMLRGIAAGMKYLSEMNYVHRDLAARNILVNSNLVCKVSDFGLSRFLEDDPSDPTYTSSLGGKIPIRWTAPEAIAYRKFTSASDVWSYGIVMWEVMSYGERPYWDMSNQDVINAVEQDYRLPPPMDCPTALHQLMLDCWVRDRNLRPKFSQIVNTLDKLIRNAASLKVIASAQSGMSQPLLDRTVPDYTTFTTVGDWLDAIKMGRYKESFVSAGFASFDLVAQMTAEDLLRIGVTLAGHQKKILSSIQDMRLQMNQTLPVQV

PIM1 (human) = PIM1 (human) (UniProt P11309)
NEK6 (human) = NEK6 (human) (UniProt Q9HC98)
Chain of NEK6 (human) (Q9HC98 whole entry, looked up): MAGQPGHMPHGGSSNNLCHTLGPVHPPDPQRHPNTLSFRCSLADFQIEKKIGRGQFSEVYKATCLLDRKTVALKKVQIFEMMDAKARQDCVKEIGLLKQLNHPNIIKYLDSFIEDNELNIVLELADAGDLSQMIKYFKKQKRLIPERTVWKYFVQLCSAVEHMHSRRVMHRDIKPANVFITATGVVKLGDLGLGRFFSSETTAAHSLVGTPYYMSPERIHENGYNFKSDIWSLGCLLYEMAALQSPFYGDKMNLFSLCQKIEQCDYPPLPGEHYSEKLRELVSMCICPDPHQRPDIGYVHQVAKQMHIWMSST

PRKCA (human) = PRKCA (human) (UniProt P17252)
FGFR1 (human) = FGFR1 (human) (UniProt P11362)
PRKACA (human) = PRKACA (human) (UniProt P17612)
MAP3K11 (human) = MAP3K11 (human) (UniProt Q16584)
GCK (human) = GCK (human) (UniProt Q12851)
Chain of GCK (human) (Q12851 whole entry, looked up): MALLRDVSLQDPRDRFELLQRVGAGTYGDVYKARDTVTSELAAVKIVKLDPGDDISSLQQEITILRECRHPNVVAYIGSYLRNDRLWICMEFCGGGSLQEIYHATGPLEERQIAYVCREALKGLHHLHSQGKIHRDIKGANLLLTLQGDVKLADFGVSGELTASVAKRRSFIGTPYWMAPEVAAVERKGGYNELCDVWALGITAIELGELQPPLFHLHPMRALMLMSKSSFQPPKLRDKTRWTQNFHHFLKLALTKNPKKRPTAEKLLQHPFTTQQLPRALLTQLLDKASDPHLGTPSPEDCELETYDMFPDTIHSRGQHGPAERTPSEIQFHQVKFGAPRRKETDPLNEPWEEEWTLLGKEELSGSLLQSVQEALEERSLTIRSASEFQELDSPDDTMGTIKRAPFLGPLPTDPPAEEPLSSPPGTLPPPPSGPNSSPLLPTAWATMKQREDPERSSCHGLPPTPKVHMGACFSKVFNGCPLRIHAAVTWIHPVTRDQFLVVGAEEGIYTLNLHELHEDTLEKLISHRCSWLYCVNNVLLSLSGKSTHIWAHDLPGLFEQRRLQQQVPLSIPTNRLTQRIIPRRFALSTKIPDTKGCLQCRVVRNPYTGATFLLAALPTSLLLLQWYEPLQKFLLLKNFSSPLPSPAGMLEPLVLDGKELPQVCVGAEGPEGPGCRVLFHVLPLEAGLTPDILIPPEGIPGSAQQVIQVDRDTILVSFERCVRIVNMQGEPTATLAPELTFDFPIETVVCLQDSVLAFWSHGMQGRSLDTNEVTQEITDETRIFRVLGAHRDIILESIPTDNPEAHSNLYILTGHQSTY

MAPK1 (human) = MAPK1 (human) (UniProt P28482)
FLT1 (human) = FLT1 (human) (UniProt P17948)
Chain of FLT1 (human) (P17948 whole entry, looked up): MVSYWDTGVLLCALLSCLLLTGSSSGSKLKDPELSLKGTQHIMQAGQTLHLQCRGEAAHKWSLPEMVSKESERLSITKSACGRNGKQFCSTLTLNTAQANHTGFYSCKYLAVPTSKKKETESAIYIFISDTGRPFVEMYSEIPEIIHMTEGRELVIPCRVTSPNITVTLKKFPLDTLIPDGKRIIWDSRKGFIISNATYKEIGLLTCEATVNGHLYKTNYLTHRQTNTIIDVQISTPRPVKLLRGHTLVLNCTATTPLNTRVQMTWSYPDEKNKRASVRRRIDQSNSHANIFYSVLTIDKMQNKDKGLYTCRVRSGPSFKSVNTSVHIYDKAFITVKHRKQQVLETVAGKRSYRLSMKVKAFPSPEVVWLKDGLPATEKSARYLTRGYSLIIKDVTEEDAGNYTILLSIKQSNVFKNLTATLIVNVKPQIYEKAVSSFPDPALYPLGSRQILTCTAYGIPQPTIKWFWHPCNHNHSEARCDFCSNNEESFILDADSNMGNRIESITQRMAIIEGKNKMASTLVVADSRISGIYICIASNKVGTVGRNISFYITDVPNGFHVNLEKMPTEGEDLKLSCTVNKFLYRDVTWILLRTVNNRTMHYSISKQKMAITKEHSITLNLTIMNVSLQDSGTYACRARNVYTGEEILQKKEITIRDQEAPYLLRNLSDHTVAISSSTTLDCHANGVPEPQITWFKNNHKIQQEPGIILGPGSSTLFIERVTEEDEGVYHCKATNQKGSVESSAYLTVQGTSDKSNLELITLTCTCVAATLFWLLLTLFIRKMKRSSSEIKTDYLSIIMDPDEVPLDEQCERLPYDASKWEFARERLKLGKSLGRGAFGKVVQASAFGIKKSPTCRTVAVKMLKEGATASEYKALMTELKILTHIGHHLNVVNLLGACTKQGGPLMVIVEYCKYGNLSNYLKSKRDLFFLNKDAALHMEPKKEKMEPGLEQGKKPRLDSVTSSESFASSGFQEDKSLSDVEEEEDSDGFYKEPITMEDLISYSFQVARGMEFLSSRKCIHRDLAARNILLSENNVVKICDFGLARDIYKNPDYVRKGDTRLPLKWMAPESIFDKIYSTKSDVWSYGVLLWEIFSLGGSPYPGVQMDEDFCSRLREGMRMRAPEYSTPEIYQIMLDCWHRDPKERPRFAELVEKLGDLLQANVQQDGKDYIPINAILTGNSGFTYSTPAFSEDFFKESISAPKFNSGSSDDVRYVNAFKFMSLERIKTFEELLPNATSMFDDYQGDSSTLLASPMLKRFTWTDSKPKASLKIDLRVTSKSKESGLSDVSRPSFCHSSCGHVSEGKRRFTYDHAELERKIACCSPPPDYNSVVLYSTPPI

INSR (human) = INSR (human) (UniProt P06213)
SRC (human) = SRC (human) (UniProt P12931)

Chain of PAK4 (human) (O96013 whole entry, looked up): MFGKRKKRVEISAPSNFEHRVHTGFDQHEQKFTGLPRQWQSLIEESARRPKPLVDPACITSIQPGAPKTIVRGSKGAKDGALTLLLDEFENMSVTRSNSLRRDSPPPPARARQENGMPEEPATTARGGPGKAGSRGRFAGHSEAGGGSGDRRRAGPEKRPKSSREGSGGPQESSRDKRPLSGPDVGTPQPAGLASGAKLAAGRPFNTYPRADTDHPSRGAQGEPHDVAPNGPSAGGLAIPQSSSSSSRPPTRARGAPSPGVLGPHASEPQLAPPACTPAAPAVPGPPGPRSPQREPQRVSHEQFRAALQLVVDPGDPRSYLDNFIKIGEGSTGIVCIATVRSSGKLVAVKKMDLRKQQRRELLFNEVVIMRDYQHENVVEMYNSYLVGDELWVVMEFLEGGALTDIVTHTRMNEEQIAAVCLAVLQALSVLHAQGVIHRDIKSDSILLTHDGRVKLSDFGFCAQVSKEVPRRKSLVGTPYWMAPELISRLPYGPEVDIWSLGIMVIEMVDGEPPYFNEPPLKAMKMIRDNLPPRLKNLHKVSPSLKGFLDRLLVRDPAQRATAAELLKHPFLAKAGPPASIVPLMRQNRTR
Chain of PAK2 (human), Q13177 [T402E] (Q13177 whole entry T402E, looked up): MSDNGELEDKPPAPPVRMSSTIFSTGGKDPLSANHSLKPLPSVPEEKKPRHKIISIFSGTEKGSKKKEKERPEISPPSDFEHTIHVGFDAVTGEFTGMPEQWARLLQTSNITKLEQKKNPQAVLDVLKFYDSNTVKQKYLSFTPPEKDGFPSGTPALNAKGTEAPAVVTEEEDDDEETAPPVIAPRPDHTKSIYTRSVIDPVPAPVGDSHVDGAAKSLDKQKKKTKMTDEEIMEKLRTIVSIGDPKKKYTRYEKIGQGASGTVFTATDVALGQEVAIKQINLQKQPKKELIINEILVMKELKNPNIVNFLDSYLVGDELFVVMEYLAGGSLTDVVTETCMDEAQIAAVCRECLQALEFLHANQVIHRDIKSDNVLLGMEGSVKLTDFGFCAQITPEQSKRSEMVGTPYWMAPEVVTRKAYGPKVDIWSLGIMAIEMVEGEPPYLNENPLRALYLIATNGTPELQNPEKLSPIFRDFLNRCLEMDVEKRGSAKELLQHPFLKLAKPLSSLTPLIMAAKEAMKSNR

What does the source list for `CNc1nc(-c2ccc3c(N)n[nH]c3c2)cc(N2C[C@@H](C(=O)NC3CCCCC3)CC[C@H]2C)n1`?
residual activity (DYRK1A (human); compound 0.01 µM): 102%; residual activity (DYRK1A (human); compound 0.1 µM): 107%; residual activity (DYRK1A (human); compound 1.0 µM): 103%; residual activity (PLK1 (human); compound 0.01 µM): 95%; residual activity (PLK1 (human); compound 0.1 µM): 113%; residual activity ([1]; compound 0.01 µM): 105%; residual activity ([1]; compound 0.1 µM): 119%; residual activity ([1]; compound 1.0 µM): 105%; residual activity (PAK4 (human); compound 0.01 µM): 108%; residual activity (PAK4 (human); compound 0.1 µM): 117%; residual activity (PAK4 (human); compound 1.0 µM): 106%; residual activity (PRKCZ (human); compound 0.01 µM): 113%; residual activity (PRKCZ (human); compound 0.1 µM): 105%; residual activity (PRKCZ (human); compound 1.0 µM): 72%; residual activity (HIPK2 (human); compound 0.01 µM): 119%; residual activity (HIPK2 (human); compound 0.1 µM): 124%; residual activity (HIPK2 (human); compound 1.0 µM): 113%; residual activity (AURKB (human); compound 0.01 µM): 105%; residual activity (AURKB (human); compound 0.1 µM): 106%; residual activity (AURKB (human); compound 1.0 µM): 83%; residual activity (MAPKAPK2 (human); compound 0.01 µM): 104%; residual activity (MAPKAPK2 (human); compound 0.1 µM): 111%; residual activity (MAPKAPK2 (human); compound 1.0 µM): 101%; residual activity (EPHB3 (human); compound 0.01 µM): 106%; residual activity (EPHB3 (human); compound 0.1 µM): 107%; residual activity (EPHB3 (human); compound 1.0 µM): 91%; residual activity (PIM1 (human); compound 0.01 µM): 99%; residual activity (PIM1 (human); compound 0.1 µM): 100%; residual activity (PIM1 (human); compound 1.0 µM): 98%; residual activity (NEK6 (human); compound 0.01 µM): 98%; residual activity (NEK6 (human); compound 0.1 µM): 101%; residual activity (NEK6 (human); compound 1.0 µM): 97%; residual activity (PRKCA (human); compound 0.01 µM): 104%; residual activity (PRKCA (human); compound 0.1 µM): 105%; residual activity (PRKCA (human); compound 1.0 µM): 94%; residual activity (FGFR1 (human); compound 0.01 µM): 119%; residual activity (FGFR1 (human); compound 0.1 µM): 119%; residual activity (FGFR1 (human); compound 1.0 µM): 110%; residual activity (PRKACA (human); compound 0.01 µM): 103%; residual activity (PRKACA (human); compound 0.1 µM): 111%; residual activity (PRKACA (human); compound 1.0 µM): 98%; residual activity (MAP3K11 (human); compound 0.01 µM): 100%; residual activity (MAP3K11 (human); compound 0.1 µM): 110%; residual activity (MAP3K11 (human); compound 1.0 µM): 87%; residual activity (GCK (human); compound 0.01 µM): 109%; residual activity (GCK (human); compound 0.1 µM): 116%; residual activity (GCK (human); compound 1.0 µM): 101%; residual activity (MAPK1 (human); compound 0.01 µM): 117%; residual activity (MAPK1 (human); compound 0.1 µM): 111%; residual activity (MAPK1 (human); compound 1.0 µM): 99%; residual activity (FLT1 (human); compound 0.01 µM): 98%; residual activity (FLT1 (human); compound 0.1 µM): 108%; residual activity (FLT1 (human); compound 1.0 µM): 89%; residual activity (INSR (human); compound 0.01 µM): 101%; residual activity (INSR (human); compound 0.1 µM): 103%; residual activity (INSR (human); compound 1.0 µM): 102%; residual activity (SRC (human); compound 0.01 µM): 101%; residual activity (SRC (human); compound 0.1 µM): 105%; residual activity (SRC (human); compound 1.0 µM): 97%
